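Step 1: Grow cells in 96-well plates. Step 2: Expose to compound for 48 hours at 5 concentrations. Step 3: Interpolate endpoints linearly; if unreached, use highest concentration. TGI marks complete inhibition of growth.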
Legend:
Experiment in all cases: NCI anticancer screen, dose series, 48 h
786-0 renal = test system: 786-0 renal
A498 renal = test system: A498 renal
A549 NSCLC = test system: A549 NSCLC
ACHN renal = test system: ACHN renal
BT-549 breast = test system: BT-549 breast
CAKI-1 renal = test system: CAKI-1 renal
CCRF-CEM leukemia = test system: CCRF-CEM leukemia
COLO 205 colon = test system: COLO 205 colon
DU-145 prostate = test system: DU-145 prostate
EKVX NSCLC = test system: EKVX NSCLC
HCC-2998 colon = test system: HCC-2998 colon
HCT-116 colon = test system: HCT-116 colon
HCT-15 colon = test system: HCT-15 colon
HOP-62 NSCLC = test system: HOP-62 NSCLC
HOP-92 NSCLC = test system: HOP-92 NSCLC
HT29 colon = test system: HT29 colon
IGROV1 ovarian = test system: IGROV1 ovarian
K-562 leukemia = test system: K-562 leukemia
KM12 colon = test system: KM12 colon
LOX IMVI melanoma = test system: LOX IMVI melanoma
M14 melanoma = test system: M14 melanoma
MALME-3M melanoma = test system: MALME-3M melanoma
MCF7 breast = test system: MCF7 breast
MDA-MB-231 breast = test system: MDA-MB-231 breast
MDA-MB-435 = test system: MDA-MB-435
MDA-N = test system: MDA-N
MOLT-4 leukemia = test system: MOLT-4 leukemia
NCI-H226 lung = test system: NCI-H226 lung
NCI-H23 lung = test system: NCI-H23 lung
NCI-H522 lung = test system: NCI-H522 lung
NCI/ADR-RES ovarian = test system: NCI/ADR-RES ovarian
OVCAR-3 ovarian = test system: OVCAR-3 ovarian
OVCAR-5 ovarian = test system: OVCAR-5 ovarian
OVCAR-8 ovarian = test system: OVCAR-8 ovarian
PC-3 prostate = test system: PC-3 prostate
RPMI-8226 leukemia = test system: RPMI-8226 leukemia
SF-268 CNS = test system: SF-268 CNS
SF-295 CNS = test system: SF-295 CNS
SF-539 CNS = test system: SF-539 CNS
SK-MEL-2 melanoma = test system: SK-MEL-2 melanoma
SK-MEL-5 melanoma = test system: SK-MEL-5 melanoma
SK-OV-3 ovarian = test system: SK-OV-3 ovarian
SN12C renal = test system: SN12C renal
SNB-19 CNS = test system: SNB-19 CNS
SR leukemia = test system: SR leukemia
SW-620 colon = test system: SW-620 colon
T-47D breast = test system: T-47D breast
TK-10 renal = test system: TK-10 renal
U251 CNS = test system: U251 CNS
UACC-257 melanoma = test system: UACC-257 melanoma
UACC-62 melanoma = test system: UACC-62 melanoma
UO-31 renal = test system: UO-31 renal
HL-60(TB) leukemia = test system: HL-60(TB) leukemia
HS 578T breast = test system: HS 578T breast
NCI-H460 lung = test system: NCI-H460 lung
OVCAR-4 ovarian = test system: OVCAR-4 ovarian
SK-MEL-28 melanoma = test system: SK-MEL-28 melanoma
SNB-75 CNS = test system: SNB-75 CNS
RXF 393 renal = test system: RXF 393 renal

Measured: TGI

COc1ccc2c(c1)OCC1Cc3cc4c(cc3OC21)OCO4 (stereo not drawn)
57.2 µM: SK-MEL-5 melanoma
52.4 µM: LOX IMVI melanoma
86.9 µM: SK-MEL-2 melanoma
81.1 µM: TK-10 renal
13.8 µM: MDA-N
34.7 µM: MDA-MB-435
not listed: HL-60(TB) leukemia | HS 578T breast | NCI-H460 lung | OVCAR-4 ovarian | SK-MEL-28 melanoma | SNB-75 CNS | RXF 393 renal
> 100 µM: all other assays above

O=C(CC(C(=O)c1ccc(F)cc1)c1ccsc1)c1cccs1 (stereo not drawn)
89.7 µM: MOLT-4 leukemia
not listed: BT-549 breast | HOP-92 NSCLC | LOX IMVI melanoma | NCI-H522 lung | OVCAR-3 ovarian | RXF 393 renal
> 100 µM: all other assays above

S=C1C(=Nc2ccccc2)N(C2CCCCC2)C(=NC2CCCCC2)N1c1ccccc1
71.8 µM: NCI-H522 lung
not listed: BT-549 breast | M14 melanoma | MCF7 breast | OVCAR-3 ovarian
> 100 µM: all other assays above

CCOc1ccccc1N1CSc2nnc(-c3ccccc3)n2C1
49.9 µM: CCRF-CEM leukemia
not listed: EKVX NSCLC | LOX IMVI melanoma | SNB-19 CNS | HL-60(TB) leukemia | HS 578T breast | SNB-75 CNS
> 100 µM: all other assays above

O=C1Nc2ccc(Cl)cc2C(=O)N2CCC[C@@H]12
not listed: CCRF-CEM leukemia | SF-539 CNS | HL-60(TB) leukemia | HS 578T breast
> 100 µM: all other assays above

— PubChem BioAssay (NCI)
